In brackets after ≈: the same amount, converted by molar mass. Several values for one entry are separate records, joined by “and”; a condition that tells them apart may be missing. Equal values may be shown once. Entries after “also recorded” stand apart in the source; their conditions may differ. Read-outs that look alike come from different tables or passages of the source.
Experiments:
S. epidermidis = experiment: Microdilution broth MIC, S. epidermidis; format: cell-based; details: Staphylococcus epidermidis; S. epidermidis SRI 1296, Trimethoprim resistant
[1] = test system: panel of Gram positive rods and cocci; experiment: Microdilution broth MIC against a panel of bacteria; format: cell-based
Salmonella typhimurium = experiment: Microdilution broth MIC, Salmonella typhimurium; format: cell-based
M. tuberculosis FtsZ [2] = molecular target: T1, M. tuberculosis FtsZ (Mycobacterium tuberculosis, UniProt P9WN95); experiment: biochemical; details: 100 μM compound, Table 6; read-out: M. tuberculosis FtsZ GTP Hydrolysis % Inhibition (100 μM)
T1 sequence (P9WN95 whole entry, looked up): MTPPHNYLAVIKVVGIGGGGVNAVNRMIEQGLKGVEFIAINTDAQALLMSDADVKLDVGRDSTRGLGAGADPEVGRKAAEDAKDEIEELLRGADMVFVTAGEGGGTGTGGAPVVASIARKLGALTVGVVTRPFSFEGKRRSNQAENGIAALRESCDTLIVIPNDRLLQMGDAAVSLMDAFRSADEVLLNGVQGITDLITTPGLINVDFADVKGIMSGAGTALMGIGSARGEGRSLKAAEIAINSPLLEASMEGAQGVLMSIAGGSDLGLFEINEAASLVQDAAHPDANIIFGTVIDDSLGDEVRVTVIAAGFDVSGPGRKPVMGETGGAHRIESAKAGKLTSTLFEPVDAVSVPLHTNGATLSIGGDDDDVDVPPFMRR

Staphylococcus aureus = experiment: Microdilution broth MIC, Staphylococcus aureus; format: cell-based
Escherichia coli = experiment: Microdilution broth MIC, Escherichia coli; format: cell-based
bovine tubulin = experiment: Light scattering assay for tubulin polymerization; format: biochemical
E. faecium = experiment: Microdilution broth MIC, E. faecium; format: cell-based; details: Enterococcus faecium; E. faecium SRI 1421, Vancomycin resistant
[3] = test system: Mycobacterium bovis (BCG); format: cell-based
Enterococcus hirae = experiment: Microdilution broth MIC, Enterococcus hirae; format: cell-based; details: Enterococcus hirae SRI 76, Wild type
M. tuberculosis Erdman = experiment: Activity in M. tuberculosis-infected mouse bone marrow macrophages; format: cell-based; details: for EC90: Mycobacterium tuberculosis, ERDMAN, Bone marrow macrophage, 168 h
Protocol: Toxicity was determined by visual inspection.

M. tuberculosis H37Ra = experiment: MIC/MBC, colorimetric (alamar blue) microdilution broth assay; format: cell-based; details: for log reduction in cfu/mL: H37Ra
Vero cells = experiment: Cytotoxicity in Vero cells (MTS assay); format: cell-based; details: Chlorocebus sabaeus, Vero cells
M. tuberculosis FtsZ [4] = molecular target: T1, M. tuberculosis FtsZ; experiment: biochemical; details: read-out: FtsZ polymerization ID50
Bacillus subtilis = experiment: Microdilution broth MIC, Bacillus subtilis; format: cell-based; details: Bacillus subtilis SRI 1032, Wild type
M. tuberculosis H37Rv [5] = experiment: microbe, parasite or virus in culture; format: cell-based; details: for inhibition of growth at 12.5 µg/mL: Mycobacterium tuberculosis, M. tuberculosis H37Rv, at 12.5% μg/ml (so in the source), read-out: Primary Screen PI (% inhibition of growth); for activity against M. tuberculosis H37Rv in the primary screen: in words
M. tuberculosis H37Rv [6] = experiment: MIC99 determination, BACTEC 460 radiometric system; format: cell-based; details: Mycobacterium tuberculosis
E. faecalis = experiment: Microdilution broth MIC, E. faecalis; format: cell-based
[7] = 72 h, 72 h exposure, Table 3, read-out: IC50
[8] = M. tuberculosis H37Rv, read-out: MIC99

`CCOC(=O)Nc1cc(NC(C)CCCN(CC)CC)c2nc(-c3ccccc3)c(-c3ccccc3)nc2n1` (stereo not shown) [SRI-3072, [8-(4-Diethylamino-1-methyl-butylamino)-2,3-diphenyl-pyrido[2,3-b]pyrazin-6-yl]-carbamic acid ethyl ester] was tested, and the MIC (S. epidermidis) was 32 µg/mL (≈ 60.8 µM), the MIC ([1]; Bacillus subtilis, read-out: MICs against expanded panel of Gram positive rods and cocci) was 32 to 64 µg/mL (≈ 60.8 to 122 µM) and the “activity against several Gram-positive bacteria, including drug resistant strains” value ([1]; in words) was “moderate activity”. The MIC (Salmonella typhimurium; Salmonella enterica, TYPHIMURIUM) was 64 µg/mL (≈ 122 µM), the “activity against S. typhimurium deep rough (rfa) mutant” value (Salmonella typhimurium; in words) was “active” and the inhibition at 100 µM (M. tuberculosis FtsZ [2]) was 20%. It also gave an MIC (Staphylococcus aureus; S. aureus SRI 1186, Wild type) of 32 µg/mL (≈ 60.8 µM), an MIC (Staphylococcus aureus; S. aureus SRI 1279, Methicillin resistant) of 64 µg/mL (≈ 122 µM) and an MIC (Staphylococcus aureus; S. aureus SRI 1343, Multi-drug resistant) of 64 µg/mL (≈ 122 µM). For the same compound, the MIC (Staphylococcus aureus; Staphylocococcus aureus SRI 1323, Wild type) was 32 µg/mL (≈ 60.8 µM), the MIC (Staphylococcus aureus; strain not named) was 32 µg/mL (≈ 60.8 µM) and the MIC (Escherichia coli; Escherichia coli SRI 1218, Wild type) was over 64 µg/mL. The “activity against E. coli” value (Escherichia coli; in words) was “not active”, the “inhibition of tubulin polymerization” value (bovine tubulin; in words, 100 μM) was “no inhibition of tubulin was seen; also recorded: no effect” and the “Bovine Brain Tubulin Polymerization ID50” value (bovine tubulin; tubulin 20 μM, 1 mM GTP, Table 6) was “no inhibition (100 μM)”. For the same compound, the MIC (E. faecium) was 32 µg/mL (≈ 60.8 µM), the “cell length / morphology” value [3] was “much longer and branched” and the “recovery after washing to remove drug” value ([3]; BCG cultured cells) was “do not recover”. It also gave an MIC (Enterococcus hirae) of 32 µg/mL (≈ 60.8 µM), an EC90 (M. tuberculosis Erdman; after seven days, read-out: EC90) of 0.12 µg/mL and an EC90 (M. tuberculosis Erdman; after seven days, read-out: EC90 (90% reduction in mycobacterial growth)) of 0.23 µM. For the same compound, the EC99 (M. tuberculosis Erdman; after seven days) was 1.42 µg/mL, the “EC99 (99% reduction in mycobacterial growth)” value (M. tuberculosis Erdman; after seven days) was 2.7 µM and the “growth of M. tuberculosis in infected mouse bone marrow macrophages” value (M. tuberculosis Erdman; in words) was “inhibit the growth”. For the same compound, the “log reduction in cfu/mL” value (M. tuberculosis H37Ra; 0.95 μM drug, six days) was 0.98±0.11, the “log reduction in cfu/mL” value (M. tuberculosis H37Ra; 1.9 μM drug, six days) was 1.7±0.06 and the “log reduction in cfu/mL” value (M. tuberculosis H37Ra; 3.8 μM drug, six days) was 2.0±0.12. The MBC (M. tuberculosis H37Ra; Mycobacterium tuberculosis, H37RA, 144 h, M. tuberculosis H37Ra, six days) was 1 µg/mL to 2 µg/mL and 1.9 µM to 3.8 µM, the MIC (M. tuberculosis H37Ra; Mycobacterium tuberculosis, H37RA, M. tuberculosis H37Ra, FIG. 2 legend) was 250 µg/mL (≈ 475 µM) and the MIC (M. tuberculosis H37Ra; Mycobacterium tuberculosis, H37RA, M. tuberculosis H37Ra, read-out: MIC) was 0.25 µg/mL and 0.47 µM. For the same compound, the IC50 (Vero cells; [7]) was 6.3 µg/mL (≈ 12 µM), the IC50 (Vero cells; read-out: IC50) was 6.3 µg/mL (≈ 12 µM) and the IC50 (M. tuberculosis FtsZ [4]) was 52 ± 12 µM. For the same compound, the MIC (Bacillus subtilis) was 16 µg/mL (≈ 30.4 µM), the inhibition of growth at 12.5 µg/mL (M. tuberculosis H37Rv [5]) was 100% and the “activity against M. tuberculosis H37Rv in the primary screen” value (M. tuberculosis H37Rv [5]) was “demonstrated activity”. For the same compound, the MIC (M. tuberculosis H37Rv [6]; H37RV, MIC referred to for dosing of the macrophage assay, strain not stated, read-out: MIC) was 0.2 µg/mL (≈ 0.38 µM), the MIC99 (M. tuberculosis H37Rv [6]; M. tuberculosis H37Rv, Table 3, read-out: Screen 2 MIC99) was 0.15 µg/mL and the MIC99 (M. tuberculosis H37Rv [6]; [8]) was 0.15 µg/mL and 0.28 µM. For the same compound, the MIC (M. tuberculosis H37Rv [6]; wildtype (H37Rv), Table 5, read-out: MIC, WT) was 0.2 µg/mL (≈ 0.38 µM), the MIC (E. faecalis; E. faecalis SRl 1295, Wild type) was 64 µg/mL (≈ 122 µM) and the MIC (E. faecalis; Enterococcus faecalis, E. faecalis SM 1414, Vancomycin resistant, read-out: MIC) was 64 µg/mL (≈ 122 µM).
`CCOC(=O)Nc1cc2c(c(N)n1)N=C(c1ccccc1)CCN2` [SRI-7614, (1-Amino-8-phenyl-6,7-dihydro-5H-2,5,9-triaza-benzocyclohepten-3-yl)-carbamic acid ethyl ester] gave an inhibition at 100 µM (M. tuberculosis FtsZ [2]) of 25%, an IC50 (bovine tubulin; read-out: tubulin polymerization ID50) of 4 µM and an IC50 (Vero cells; [7]) of over 200 µg/mL. It also gave an IC50 (Vero cells; read-out: IC50) of over 200 µg/mL, an IC50 (M. tuberculosis FtsZ [4]) of 60 µM and an inhibition of growth at 12.5 µg/mL (M. tuberculosis H37Rv [5]) of 100%. The “activity against M. tuberculosis H37Rv in the primary screen” value (M. tuberculosis H37Rv [5]) was “demonstrated activity”, the MIC99 (M. tuberculosis H37Rv [6]; H37RV) was 6.25 µg/mL and the MIC99 (M. tuberculosis H37Rv [6]; H37RV, read-out: Screen 2 MIC99) was 6.25 µg/mL. The MIC99 (M. tuberculosis H37Rv [6]; [8]) was 19 µM.

From patent US7718651B2, “Inhibitors of FtsZ and uses thereof” (priority 2002, dated 2010)
